Results taken from US9326973B2, “Hepatitis C virus inhibitors” (priority 2012, dated 2016).

What follows are compounds tested on HCV replicon, genotype-1a variant with glutamine 30 changed to glutamate in the NS5A protein (assay: microbe, parasite or virus in culture). Settings: HCV replicon genotype 1a Q30E (Q→E) variant; test compound titrated with an NS5A-targeting compound (BMS-790052 fixed at 200 nM); ranking of synergist activity.
Format: cell-based, HCV genotype 1a
Outline: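 Synergy was assessed by combining several fixed amounts of an NS5A-targeting compound with a titration of the second compound of interest.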
COCCC(=O)N1CCC[C@H]1c1ncc(-c2ccc(-c3ccc(-c4cnc([C@@H]5CCCN5C(=O)CCOC)[nH]4)cc3)cc2)[nH]1 [Compound S-192] was tested, and the “Fold-Synergistic 1a (Q30E)” value was under 10 fold.
For CC1(C(=O)N[C@H](c2nc(-c3ccc(-c4ccc(-c5c[nH]c([C@@H](NC(=O)C6(C)OCCCO6)C(C)(C)C)n5)cc4)cc3)c[nH]2)C(C)(C)C)OCCCO1 [Compound L-83], the “Fold-Synergistic 1a (Q30E)” value was over 100 fold.
CC(C)CC(=O)N[C@H](c1nc(-c2ccc3cc(-c4ccc(-c5cnc([C@@H](NC(=O)CC(C)C)C(C)(C)C)[nH]5)cc4)ccc3c2)c[nH]1)C(C)(C)C [Compound N-9] was tested, and the “Fold-Synergistic 1a (Q30E)” value was over 10 fold.
With CC(C)(C)[C@H](NC(=O)CC1CCCO1)c1nc(-c2ccc(-c3ccc(-c4c[nH]c([C@@H](NC(=O)CC5CCCO5)C(C)(C)C)n4)cc3)cc2)c[nH]1 (stereo partly drawn) [Compound L-70] the “Fold-Synergistic 1a (Q30E)” value was over 100 fold.
For O=C(c1cccc2ccccc12)N1CCC[C@H]1c1ncc(-c2ccc(-c3ccc(-c4cnc([C@@H]5CCCN5C(=O)c5cccc6ccccc56)[nH]4)cc3)cc2)[nH]1 [Compound S-119], the “Fold-Synergistic 1a (Q30E)” value was over 10 fold.
For COC(=O)N1CCC(F)(F)C[C@H]1C(=O)N[C@H](c1nc(-c2ccc(-c3ccc(-c4c[nH]c([C@@H](NC(=O)[C@@H]5CC(F)(F)CCN5C(=O)OC)C(C)(C)C)n4)cc3)cc2)c[nH]1)C(C)(C)C [Compound L-43], the “Fold-Synergistic 1a (Q30E)” value was over 100 fold.
In the case of CC(C)(C)[C@H](NC(=O)C1CC(=O)c2ccccc2C1)c1nc(-c2ccc(-c3ccc(-c4c[nH]c([C@@H](NC(=O)C5CC(=O)c6ccccc6C5)C(C)(C)C)n4)cc3)cc2)c[nH]1 (stereo partly drawn) [Compound S-256], the “Fold-Synergistic 1a (Q30E)” value is reported as over 100 fold.
In the case of CC(C)(C)[C@H](NC(=O)C(=O)N1CCOCC1)c1nc(-c2ccc(-c3ccc(-c4c[nH]c([C@@H](NC(=O)C(=O)N5CCOCC5)C(C)(C)C)n4)cc3)cc2)c[nH]1 [Compound W-25], the “Fold-Synergistic 1a (Q30E)” value is reported as over 100 fold.
O=C([C@H]1CCCO1)N1CCC[C@H]1c1ncc(-c2ccc(-c3ccc(-c4cnc([C@@H]5CCCN5C(=O)[C@H]5CCCO5)[nH]4)cc3)cc2)[nH]1 [Compound S-111] was tested, and the “Fold-Synergistic 1a (Q30E)” value was under 10 fold.
In the case of CC(C)(C)OC(=O)N1CCCC[C@H]1C(=O)N[C@H](c1nc(-c2ccc(-c3ccc(-c4c[nH]c([C@@H](NC(=O)[C@@H]5CCCCN5C(=O)OC(C)(C)C)C(C)(C)C)n4)cc3)cc2)c[nH]1)C(C)(C)C [Compound L-17], the “Fold-Synergistic 1a (Q30E)” value is reported as over 100 fold.
In the case of CC(C)CC(=O)NC1(c2nc(-c3ccc(-c4ccc(-c5c[nH]c(C6(NC(=O)CC(C)C)CC=CC6)n5)cc4)cc3)c[nH]2)CC=CC1 [Compound N-16], the “Fold-Synergistic 1a (Q30E)” value is reported as under 10 fold.
With CC1([C@H](NC(=O)C(=O)N2CCCCCC2)c2nc(-c3ccc(-c4ccc(-c5c[nH]c([C@@H](NC(=O)C(=O)N6CCCCCC6)C6(C)CC6)n5)cc4)cc3)c[nH]2)CC1 [Compound W-57] the “Fold-Synergistic 1a (Q30E)” value was over 100 fold.
In the case of CC(C)(C)[C@H](NC(=O)[C@H]1COC(=O)N1)c1nc(-c2ccc(-c3ccc(-c4c[nH]c([C@@H](NC(=O)[C@H]5COC(=O)N5)C(C)(C)C)n4)cc3)cc2)c[nH]1 [Compound L-9], the “Fold-Synergistic 1a (Q30E)” value is reported as over 10 fold.
For CC[C@H](NC(=O)CC(C)C)c1nc(-c2ccc(-c3ccc(-c4c[nH]c([C@H](CC)NC(=O)CC(C)C)n4)cc3)cc2)c[nH]1 [Compound N-42], the “Fold-Synergistic 1a (Q30E)” value was over 100 fold.
In the case of CC(C)(C)OC(=O)N1CC(C)(C(=O)N[C@H](c2nc(-c3ccc(-c4ccc(-c5c[nH]c([C@@H](NC(=O)C6(C)CN(C(=O)OC(C)(C)C)C6)C(C)(C)C)n5)cc4)cc3)c[nH]2)C(C)(C)C)C1 [Compound L-63], the “Fold-Synergistic 1a (Q30E)” value is reported as over 100 fold.
For Cc1ccc(S(=O)(=O)N[C@H](c2ncc(-c3ccc(-c4ccc(-c5cnc([C@@H](NS(=O)(=O)c6ccc(C)cc6)C(C)C)[nH]5)cc4)cc3)[nH]2)C(C)C)cc1 [Compound Y-58], the “Fold-Synergistic 1a (Q30E)” value was over 100 fold.
For CC(C)N(C(=O)OC1(C(=O)N[C@H](c2nc(-c3ccc(-c4ccc(-c5c[nH]c([C@@H](NC(=O)C6(OC(=O)N(C(C)C)C(C)C)CC6)C(C)(C)C)n5)cc4)cc3)c[nH]2)C(C)(C)C)CC1)C(C)C [Compound L-38], the “Fold-Synergistic 1a (Q30E)” value was over 100 fold.
In the case of CC(C)(C)OC(=O)N1CCC(C(=O)N[C@H](c2nc(-c3ccc(-c4ccc(-c5c[nH]c([C@@H](NC(=O)C6CCN(C(=O)OC(C)(C)C)CC6)C(C)(C)C)n5)cc4)cc3)c[nH]2)C(C)(C)C)CC1 [Compound S-264], the “Fold-Synergistic 1a (Q30E)” value is reported as over 100 fold.
O=C(c1cnc2ccccc2n1)N1CCC[C@H]1c1ncc(-c2ccc(-c3ccc(-c4cnc([C@@H]5CCCN5C(=O)c5cnc6ccccc6n5)[nH]4)cc3)cc2)[nH]1 [Compound S-126] was tested, and the “Fold-Synergistic 1a (Q30E)” value was over 100 fold.
In the case of O=C(N1CCC[C@H]1c1ncc(-c2ccc(-c3ccc(-c4cnc([C@@H]5CCCN5C(=O)C5(c6ccccc6F)CCCC5)[nH]4)cc3)cc2)[nH]1)C1(c2ccccc2F)CCCC1 [Compound S-155], the “Fold-Synergistic 1a (Q30E)” value is reported as under 10 fold.
COC(=O)N1C[C@H](F)C[C@H]1C(=O)N[C@H](c1nc(-c2ccc(-c3ccc(-c4c[nH]c([C@@H](NC(=O)[C@@H]5C[C@@H](F)CN5C(=O)OC)C(C)(C)C)n4)cc3)cc2)c[nH]1)C(C)(C)C [Compound W-109] was tested, and the “Fold-Synergistic 1a (Q30E)” value was over 100 fold.
For COC(=O)N[C@H](C(=O)NC1(c2nc(-c3ccc(-c4ccc(-c5c[nH]c(C6(NC(=O)[C@@H](NC(=O)OC)C(C)C)CC=CC6)n5)cc4)cc3)c[nH]2)CC=CC1)C(C)C [Compound N-15], the “Fold-Synergistic 1a (Q30E)” value was under 10 fold.
With CC(C)(C)[C@H](NC(=O)C1CC(=O)C1)c1nc(-c2ccc(-c3ccc(-c4c[nH]c([C@@H](NC(=O)C5CC(=O)C5)C(C)(C)C)n4)cc3)cc2)c[nH]1 [Compound W-171] the “Fold-Synergistic 1a (Q30E)” value was over 100 fold.
In the case of CC(C)(C)[C@H](NC(=O)[C@@H]1CCC[C@@H]1O)c1nc(-c2ccc(-c3ccc(-c4c[nH]c([C@@H](NC(=O)[C@@H]5CCC[C@@H]5O)C(C)(C)C)n4)cc3)cc2)c[nH]1 [Compound P-171], the “Fold-Synergistic 1a (Q30E)” value is reported as over 100 fold.
For CCN(CC(F)(F)F)C(=O)C(=O)N[C@H](c1nc(-c2ccc(-c3ccc(-c4c[nH]c([C@@H](NC(=O)C(=O)N(CC)CC(F)(F)F)C(C)C)n4)cc3)cc2)c[nH]1)C(C)C [Compound W-56], the “Fold-Synergistic 1a (Q30E)” value was over 100 fold.
With CC(C)(C)OC(=O)N1CCC[C@]1(C)C(=O)N[C@H](c1nc(-c2ccc(-c3ccc(-c4c[nH]c([C@@H](NC(=O)[C@@]5(C)CCCN5C(=O)OC(C)(C)C)C(C)(C)C)n4)cc3)cc2)c[nH]1)C(C)(C)C [Compound L-15] the “Fold-Synergistic 1a (Q30E)” value was over 100 fold.
In the case of CC1(C)CCCC(C)(C(=O)N[C@H](c2nc(-c3ccc(-c4ccc(-c5c[nH]c([C@@H](NC(=O)C6(C)CCCC(C)(C)O6)C(C)(C)C)n5)cc4)cc3)c[nH]2)C(C)(C)C)O1 (stereo partly drawn) [Compound W-167], the “Fold-Synergistic 1a (Q30E)” value is reported as over 100 fold.
For C[C@@H]1CCCCN1C(=O)C(C)(C)C(=O)N[C@H](c1nc(-c2ccc(-c3ccc(-c4c[nH]c([C@@H](NC(=O)C(C)(C)C(=O)N5CCCC[C@H]5C)C(C)(C)C)n4)cc3)cc2)c[nH]1)C(C)(C)C [Compound W-148], the “Fold-Synergistic 1a (Q30E)” value was over 100 fold.
In the case of CC1(C(=O)N2CCC[C@H]2c2ncc(-c3ccc(-c4ccc(-c5cnc([C@@H]6CCCN6C(=O)C6(C)CC6)[nH]5)cc4)cc3)[nH]2)CC1 [Compound S-160], the “Fold-Synergistic 1a (Q30E)” value is reported as under 10 fold.
In the case of CC(C)(NC1CCCCC1)C(=O)N[C@H](c1nc(-c2ccc(-c3ccc(-c4c[nH]c([C@@H](NC(=O)C(C)(C)NC5CCCCC5)C(C)(C)C)n4)cc3)cc2)c[nH]1)C(C)(C)C [Compound P-174], the “Fold-Synergistic 1a (Q30E)” value is reported as over 100 fold.
